Data: patent US6316500A, “Aliphatically unsaturated hydroxy benzoates and preservative compositions thereof” (ISP Investments Inc., priority 1999, dated 2001)

What was measured:
P. aeruginosa 9027 = assay: Activity test: preservative challenge test in emulsion, P. aeruginosa 9027; format: cell-based; conditions: 0.5% preservative in emulsion; for number of colonies per milliliter, 28 days: reinoculated at 21 days
Experimental: (§1) The emulsion was prepared by separately mixing components in phase A and phase B at 75-80° C. for 15 minutes. The phases were then combined and mixed for another 10 minutes and cooled to 45° C. with stirring. Preservative was then added followed by citric acid to adjust pH to from abut 6.5 to 7.5. Stirring of the resulting mixture was continued until a temperature of 30° C. was reached. The activity tests were carried out using the following microorganisms: A. niger, B. cepacia, C. albicans, E. coli, P. aeruginosa and S. aureus. 50 g aliquots of the test emulsion containing various amounts of the preservative admixture as reported in Tables I-V were inoculated with approximately 10^7 -10^8 of the test organisms. The test samples then were stirred to disperse the challenge inoculum. The samples were incubated and assayed at 48 hours, 7, 14, 21 and 28 days. The assays were performed on 1 g, of the test sample by serially diluting 10^3 to 10^6 of the original concentration. The plating medium for bacteria was Letheen agar and for fungi it was low pH Mycophil agar with Tween 20. Each plated sample was incubated for 48 hours at 37° C. for bacteria, 5 days at 25° C. for mold and 3 days at 25° C. for fungi. After incubation, readings of the number of colonies per milliliter (cfu/ml) were made results were determined, as reported in associated Tables IA-VA. At 21 days the test product was reinoculated with half of the original inoculum.

A. niger 16404 = assay: Activity test: preservative challenge test in emulsion, A. niger 16404; format: cell-based; conditions: 0.5% preservative in emulsion; for number of colonies per milliliter, 28 days: reinoculated at 21 days
Experimental: as §1

B. cepacia 25416 = assay: Activity test: preservative challenge test in emulsion, B. cepacia 25416; format: cell-based; conditions: 0.5% preservative in emulsion; for number of colonies per milliliter, 28 days: reinoculated at 21 days
Experimental: as §1

E. coli 8739 = assay: Activity test: preservative challenge test in emulsion, E. coli 8739; format: cell-based; conditions: 0.5% preservative in emulsion; for number of colonies per milliliter, 28 days: reinoculated at 21 days
Experimental: as §1

S. aureus 6538 = assay: Activity test: preservative challenge test in emulsion, S. aureus 6538; format: cell-based; conditions: 0.5% preservative in emulsion; for number of colonies per milliliter, 28 days: reinoculated at 21 days
Experimental: as §1

C. albicans 10231 = assay: Activity test: preservative challenge test in emulsion, C. albicans 10231; format: cell-based; conditions: 0.5% preservative in emulsion; for number of colonies per milliliter, 28 days: reinoculated at 21 days
Experimental: as §1

[1] = Partition coefficients (log of oil/water solubility)
From the text: A greater water partitioning is indicated by a low log value.

Structure (SMILES)	number of colonies per milliliter, 48 hr (P. aeruginosa 9027) [cfu/ml]	number of colonies per milliliter, 7 days (P. aeruginosa 9027) [cfu/ml]	number of colonies per milliliter, 14 days (P. aeruginosa 9027) [cfu/ml]	number of colonies per milliliter, 21 days (P. aeruginosa 9027) [cfu/ml]	number of colonies per milliliter, 28 days (P. aeruginosa 9027) [cfu/ml]	number of colonies per milliliter, 48 hr (A. niger 16404) [cfu/ml]	number of colonies per milliliter, 7 days (A. niger 16404) [cfu/ml]	number of colonies per milliliter, 14 days (A. niger 16404) [cfu/ml]	number of colonies per milliliter, 21 days (A. niger 16404) [cfu/ml]	number of colonies per milliliter, 28 days (A. niger 16404) [cfu/ml]	number of colonies per milliliter, 48 hr (B. cepacia 25416)	number of colonies per milliliter, 7 days (B. cepacia 25416)	number of colonies per milliliter, 14 days (B. cepacia 25416)	number of colonies per milliliter, 21 days (B. cepacia 25416)	number of colonies per milliliter, 28 days (B. cepacia 25416)	number of colonies per milliliter, 48 hr (E. coli 8739) [cfu/ml]	number of colonies per milliliter, 7 days (E. coli 8739) [cfu/ml]	number of colonies per milliliter, 14 days (E. coli 8739) [cfu/ml]	number of colonies per milliliter, 21 days (E. coli 8739) [cfu/ml]	number of colonies per milliliter, 28 days (E. coli 8739) [cfu/ml]	other results
CC=CC=CCOC(=O)c1ccc(O)cc1O [2,4-Hexadienyl-2,4-dihydroxybenzoate, 2,4-Hexadienyl-2,4-Dihydroxybenzoate]	< 10	< 10	< 10	< 10	< 10	4200	30	< 10	< 10	< 10	< 10^6 cfu/ml	< 10^6 cfu/ml	< 10^6 cfu/ml	< 10^6 cfu/ml	< 10^6 cfu/ml	< 10	< 10	< 10	< 10	< 10	number of colonies per milliliter, 48 hr (S. aureus 6538): < 10 cfu/ml; number of colonies per milliliter, 7 days (S. aureus 6538): < 10 cfu/ml; number of colonies per milliliter, 14 days (S. aureus 6538): < 10 cfu/ml; number of colonies per milliliter, 21 days (S. aureus 6538): < 10 cfu/ml; number of colonies per milliliter, 28 days (S. aureus 6538): < 10 cfu/ml; number of colonies per milliliter, 48 hr (C. albicans 10231): < 10 cfu/ml; number of colonies per milliliter, 7 days (C. albicans 10231): < 10 cfu/ml; number of colonies per milliliter, 14 days (C. albicans 10231): < 10 cfu/ml; number of colonies per milliliter, 21 days (C. albicans 10231): < 10 cfu/ml; number of colonies per milliliter, 28 days (C. albicans 10231): < 10 cfu/ml
CC=CC=CCOC(=O)c1ccc(O)cc1 [2,4-Hexadienyl-4-Hydroxybenzoate]	< 10	< 10	< 10	< 10	< 10	4800	< 10	< 10	< 10	< 10	< 10^6 cfu/ml	< 10^6 cfu/ml	< 10^6 cfu/ml	< 10^6 cfu/ml	< 10^6 cfu/ml	< 10	< 10	< 10	< 10	< 10	number of colonies per milliliter, 48 hr (S. aureus 6538): < 10 cfu/ml; number of colonies per milliliter, 7 days (S. aureus 6538): < 10 cfu/ml; number of colonies per milliliter, 14 days (S. aureus 6538): < 10 cfu/ml; number of colonies per milliliter, 21 days (S. aureus 6538): < 10 cfu/ml; number of colonies per milliliter, 28 days (S. aureus 6538): < 10 cfu/ml; number of colonies per milliliter, 48 hr (C. albicans 10231): < 10 cfu/ml; number of colonies per milliliter, 7 days (C. albicans 10231): < 10 cfu/ml; number of colonies per milliliter, 14 days (C. albicans 10231): < 10 cfu/ml; number of colonies per milliliter, 21 days (C. albicans 10231): < 10 cfu/ml; number of colonies per milliliter, 28 days (C. albicans 10231): < 10 cfu/ml
CCCCOC(=O)c1ccc(O)cc1 [Parahydroxy butyl benzoate]	–	–	–	–	–	–	–	–	–	–	–	–	–	–	–	–	–	–	–	–	Log P [1]: 3.57
CCOC(=O)c1ccc(O)cc1 [Parahydroxy ethyl benzoate]	–	–	–	–	–	–	–	–	–	–	–	–	–	–	–	–	–	–	–	–	Log P [1]: 2.47
